# Measurements: ChEMBL document CHEMBL2021864, “Investigating the activity of quinine analogues versus chloroquine resistant Plasmodium falciparum” (Bioorg Med Chem, 2012)
# Legend:
# Plasmodium falciparum [1] = assay: microbe, parasite or virus in culture; assay type: functional, organism-based; conditions: Dd2, 72 h
# Description: Antimalarial activity against chloroquine resistant Plasmodium falciparum Dd2 after 72 hrs by SYBP Green I dye staining
# Plasmodium falciparum [2] = assay: microbe, parasite or virus in culture; assay type: functional, organism-based; conditions: HB3, 72 h
# Description: Antimalarial activity against chloroquine sensitive Plasmodium falciparum HB3 after 72 hrs by SYBP Green I dye staining
# [3] = Inhibition of beta-hematin formation after 16 hrs at pH 5.2 by microplate reader; assay type: functional
# [4] = Inhibition of beta-hematin formation after 16 hrs at pH 5.6 by microplate reader; assay type: functional
# Plasmodium falciparum [5] = assay: Ratio of compound IC50 to quinidine IC50 for chloroquine sensitive Plasmodium falciparum HB3; assay type: functional
# Plasmodium falciparum [6] = assay: Ratio of compound IC50 to quinidine IC50 for […] Plasmodium falciparum Dd2; assay type: functional
# Plasmodium falciparum [7] = assay: Ratio of compound IC50 to cinchonine IC50 for chloroquine sensitive Plasmodium falciparum HB3; assay type: functional
SMILES,IC50 (Plasmodium falciparum [1]),IC50 (Plasmodium falciparum [2]),IC50 [3],IC50 [4],Ratio IC50 (Plasmodium falciparum [5]),Ratio IC50 (Plasmodium falciparum [6]),Ratio IC50 (Plasmodium falciparum [7])
COc1ccc2nccc([C@@H](O)[C@H]3C[C@H]4CCN3C[C@@H]4/C=C/c3ccccc3)c2c1,> 0.5 µM,> 0.5 µM,,,,,
COc1ccc2nccc([C@@H](O)[C@H]3C[C@H]4CCN3C[C@@H]4/C=C/c3ccc(C)cc3)c2c1,> 0.5 µM,> 0.5 µM,,,,,
COc1ccc2nccc([C@@H](O)[C@H]3C[C@H]4CCN3C[C@@H]4/C=C/c3ccccc3C)c2c1,> 0.5 µM,> 0.5 µM,,,,,
COc1ccc2nccc([C@@H](O)[C@H]3C[C@H]4CCN3C[C@@H]4/C=C/c3ccc4ccccc4c3)c2c1,> 1.5 µM,> 0.5 µM,,,,,
COc1ccc2nccc([C@@H](O)[C@H]3C[C@H]4CCN3C[C@@H]4/C=C/c3cccc4ccccc34)c2c1,> 0.5 µM,> 0.5 µM,,,,,
COc1ccc2nccc([C@@H](O)[C@H]3C[C@H]4CCN3C[C@@H]4/C=C/c3ccc(-c4ccccc4)cc3)c2c1,0.184 µM,0.128 µM,,,,,
CCOC(=O)c1ccc(/C=C/[C@H]2CN3CC[C@@H]2C[C@@H]3[C@H](O)c2ccnc3ccc(OC)cc23)cc1,0.318 µM,0.428 µM,54 µM,40 µM,,,
COc1ccc2nccc([C@@H](O)[C@H]3C[C@H]4CCN3C[C@@H]4/C=C/c3ccc(F)cc3)c2c1,> 0.5 µM,> 0.5 µM,44 µM,23 µM,,,
COc1ccc2nccc([C@@H](O)[C@H]3C[C@H]4CCN3C[C@@H]4/C=C/c3cccc(F)c3)c2c1,0.733 µM,0.145 µM,,,,,
COc1ccc2nccc([C@@H](O)[C@H]3C[C@H]4CCN3C[C@@H]4/C=C/c3ccc(Cl)cc3)c2c1,> 0.5 µM,> 0.5 µM,,,,,
COc1ccc2nccc([C@@H](O)[C@H]3C[C@H]4CCN3C[C@@H]4/C=C/c3ccc(C(F)(F)F)cc3)c2c1,0.485 µM,0.427 µM,100 µM,46 µM,,,
COc1ccc2nccc([C@@H](O)[C@H]3C[C@H]4CCN3C[C@@H]4/C=C/c3cccc(C(F)(F)F)c3)c2c1,> 0.5 µM,> 0.5 µM,52 µM,,,,
COc1ccc(/C=C/[C@H]2CN3CC[C@@H]2C[C@@H]3[C@H](O)c2ccnc3ccc(OC)cc23)cc1,> 0.5 µM,> 0.5 µM,,,,,
COc1cccc(/C=C/[C@H]2CN3CC[C@@H]2C[C@@H]3[C@H](O)c2ccnc3ccc(OC)cc23)c1,> 0.5 µM,> 0.5 µM,,,,,
COc1ccc2nccc([C@@H](O)[C@H]3C[C@H]4CCN3C[C@@H]4/C=C/c3ccc4c(c3)OCO4)c2c1,> 0.5 µM,> 0.5 µM,,,,,
O[C@H](c1ccnc2ccccc12)[C@@H]1C[C@@H]2CCN1C[C@@H]2/C=C/c1ccc(-c2ccccc2)cc1,0.176 µM,0.127 µM,,116 µM,,,

SMILES,IC50 (Plasmodium falciparum [1]),IC50 (Plasmodium falciparum [2]),IC50 [3],IC50 [4],Ratio IC50 (Plasmodium falciparum [5]),Ratio IC50 (Plasmodium falciparum [6]),Ratio IC50 (Plasmodium falciparum [7])
CCOC(=O)c1ccc(/C=C/[C@H]2CN3CC[C@H]2C[C@H]3[C@H](O)c2ccnc3ccccc23)cc1,0.198 µM,0.59 µM,,,,,
O[C@H](c1ccnc2ccccc12)[C@@H]1C[C@@H]2CCN1C[C@@H]2/C=C/c1ccc(C(F)(F)F)cc1,0.223 µM,0.297 µM,,,,,
O[C@H](c1ccnc2ccccc12)[C@@H]1C[C@@H]2CCN1C[C@@H]2/C=C/c1cccc(C(F)(F)F)c1,0.928 µM,0.394 µM,75 µM,70 µM,,,
COc1ccc2nccc([C@H](O)[C@H]3C[C@@H]4CCN3C[C@@H]4/C=C/c3ccc(-c4ccccc4)cc3)c2c1,0.202 µM,0.123 µM,,,6,2,
CCOC(=O)c1ccc(/C=C/[C@H]2CN3CC[C@H]2C[C@@H]3[C@@H](O)c2ccnc3ccc(OC)cc23)cc1,0.203 µM,0.12 µM,88 µM,40 µM,6,2,
COc1ccc2nccc([C@H](O)[C@H]3C[C@@H]4CCN3C[C@@H]4/C=C/c3ccc(C(F)(F)F)cc3)c2c1,2.35 µM,0.165 µM,,,,,
COc1ccc2nccc([C@H](O)[C@H]3C[C@@H]4CCN3C[C@@H]4/C=C/c3cccc(C(F)(F)F)c3)c2c1,0.182 µM,0.098 µM,,,6,2,
O[C@@H](c1ccnc2ccccc12)[C@H]1C[C@@H]2CCN1C[C@@H]2/C=C/c1ccc(-c2ccccc2)cc1,0.243 µM,0.09 µM,,,,,6
CCOC(=O)c1ccc(/C=C/[C@H]2CN3CC[C@H]2C[C@@H]3[C@@H](O)c2ccnc3ccccc23)cc1,0.263 µM,0.144 µM,66 µM,50 µM,,,6
O[C@@H](c1ccnc2ccccc12)[C@H]1C[C@@H]2CCN1C[C@@H]2/C=C/c1ccc(C(F)(F)F)cc1,0.983 µM,0.066 µM,,,,,6
O[C@@H](c1ccnc2ccccc12)[C@H]1C[C@@H]2CCN1C[C@@H]2/C=C/c1cccc(C(F)(F)F)c1,0.146 µM,0.154 µM,63 µM,39 µM,,,6
CCN(CC)CCCC(C)Nc1ccnc2cc(Cl)ccc12 (stereo not drawn) [CHLOROQUINE],,,49 µM,33 µM,,,
C=C[C@H]1CN2CC[C@H]1C[C@H]2[C@H](O)c1ccnc2ccccc12 [CINCHONIDINE],0.207 µM,0.07 µM,321 µM,142 µM,,,
C=C[C@H]1CN2CC[C@H]1C[C@@H]2[C@@H](O)c1ccnc2ccccc12 [CINCHONINE],0.082 µM,0.022 µM,370 µM,170 µM,,,
C=C[C@H]1CN2CC[C@H]1C[C@@H]2[C@@H](O)c1ccnc2ccc(OC)cc12 [QUINIDINE],0.09 µM,0.018 µM,130 µM,23 µM,,,
C=C[C@H]1CN2CC[C@H]1C[C@H]2[C@H](O)c1ccnc2ccc(OC)cc12 [QUININE],0.32 µM,0.081 µM,291 µM,34 µM,,,
